Experiments:
Experiment in all cases: relative viability (nuclei count vs DMSO), 5 days (fraction); higher = more cells survive
[1] = system: NCI-H3122
Method in brief: (§1)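 Relative viability equals treated-well nuclei counts divided by vehicle-well nuclei counts. Counts came from 4× images of lung cancer cell lines grown in 1536-well plates for 5 days after pin-tool dosing on the day after seeding. Dosing used one drug alone or a fixed anchor-drug dose plus five library-drug doses (not always all listed) in √10 steps, and values are medians of duplicate plates.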

[2] = system: HCC-78
Method in brief: as §1

[3] = system: LK-2
Method in brief: as §1

[4] = system: NCI-H2126
Method in brief: as §1

[5] = system: SW 900
Method in brief: as §1

[6] = system: RERF-LC-KJ
Method in brief: as §1

[7] = system: SW 1573
Method in brief: as §1

[8] = system: ChaGo-K-1
Method in brief: as §1

[9] = system: NCI-H1975
Method in brief: as §1

[10] = system: NCI-H2085
Method in brief: as §1

[11] = system: NCI-H1666
Method in brief: as §1

[12] = system: EPLC-272H
Method in brief: as §1

[13] = system: NCI-H23
Method in brief: as §1

[14] = system: LOU-NH91
Method in brief: as §1

[15] = system: NCI-H1563
Method in brief: as §1

[16] = system: LU99A
Method in brief: as §1

[17] = system: EMC-BAC-2
Method in brief: as §1

[18] = system: LCLC-103H
Method in brief: as §1

[19] = system: HCC-827
Method in brief: as §1

[20] = system: HCC-366
Method in brief: as §1

[21] = system: NCI-H2405
Method in brief: as §1

[22] = system: LXF-289
Method in brief: as §1

[23] = system: SK-LU-1
Method in brief: as §1

`COc1cc(N2CCC(C(N)=O)CC2)ccc1Nc1nc(N)c(Cl)c(Nc2ccccc2S(=O)(=O)C(C)C)n1` [HG-5-88-01] + COc1cc2c(Oc3ccc(NC(=O)C4(C(=O)Nc5ccc(F)cc5)CC4)cc3F)ccnc2cc1OCCCN1CCOCC1 [Foretinib] (partner 0.25 µM) showed a relative viability ([1]; first compound 0.04 µM) of 0.891, a relative viability ([1]; first compound 0.1265 µM) of 0.684 and a relative viability ([1]; first compound 0.4 µM) of 0.205. It also gave a relative viability ([1]; first compound 1.265 µM) of 0.169, a relative viability ([1]; first compound 4 µM) of 0.15 and a relative viability ([2]; first compound 0.04 µM) of 0.589. It also gave a relative viability ([2]; first compound 0.1265 µM) of 0.533, a relative viability ([2]; first compound 0.4 µM) of 0.583 and a relative viability ([2]; first compound 1.265 µM) of 0.377. For the same molecule, the relative viability ([2]; first compound 4 µM) was 0.464, the relative viability ([3]; first compound 0.04 µM) was 1.13 and the relative viability ([3]; first compound 0.1265 µM) was 1.39. For the same molecule, the relative viability ([3]; first compound 0.4 µM) was 0.784, the relative viability ([3]; first compound 1.265 µM) was 0.99 and the relative viability ([3]; first compound 4 µM) was 0.808. The relative viability ([4]; first compound 0.1265 µM) was 1.22, the relative viability ([4]; first compound 0.4 µM) was 1.05 and the relative viability ([4]; first compound 1.265 µM) was 0.937. For the same molecule, the relative viability ([4]; first compound 4 µM) was 1.23, the relative viability ([5]; first compound 0.04 µM) was 0.996 and the relative viability ([5]; first compound 0.1265 µM) was 1.08. It also gave a relative viability ([5]; first compound 0.4 µM) of 0.926, a relative viability ([5]; first compound 1.265 µM) of 0.918 and a relative viability ([5]; first compound 4 µM) of 0.493. It also gave a relative viability ([6]; first compound 0.04 µM) of 0.869, a relative viability ([6]; first compound 0.1265 µM) of 0.849 and a relative viability ([6]; first compound 0.4 µM) of 0.839. The relative viability ([6]; first compound 1.265 µM) was 0.836, the relative viability ([6]; first compound 4 µM) was 0.846 and the relative viability ([7]; first compound 0.04 µM) was 0.868. For the same molecule, the relative viability ([7]; first compound 0.1265 µM) was 0.816, the relative viability ([7]; first compound 0.4 µM) was 0.942 and the relative viability ([7]; first compound 1.265 µM) was 0.736. The relative viability ([7]; first compound 4 µM) was 0.624, the relative viability ([8]; first compound 0.04 µM) was 0.761 and the relative viability ([8]; first compound 0.1265 µM) was 1.03. For the same molecule, the relative viability ([8]; first compound 0.4 µM) was 0.804, the relative viability ([8]; first compound 1.265 µM) was 0.942 and the relative viability ([8]; first compound 4 µM) was 0.909. For the same molecule, the relative viability ([9]; first compound 0.04 µM) was 1.08, the relative viability ([9]; first compound 0.1265 µM) was 0.923 and the relative viability ([9]; first compound 0.4 µM) was 0.814. For the same molecule, the relative viability ([9]; first compound 1.265 µM) was 0.916, the relative viability ([9]; first compound 4 µM) was 0.397 and the relative viability ([10]; first compound 0.04 µM) was 0.852. For the same molecule, the relative viability ([10]; first compound 0.1265 µM) was 0.947, the relative viability ([10]; first compound 0.4 µM) was 0.907 and the relative viability ([10]; first compound 1.265 µM) was 0.704. It also gave a relative viability ([10]; first compound 4 µM) of 0.807, a relative viability ([11]; first compound 0.04 µM) of 1.06 and a relative viability ([11]; first compound 0.1265 µM) of 1.06. For the same molecule, the relative viability ([11]; first compound 0.4 µM) was 1, the relative viability ([11]; first compound 1.265 µM) was 0.74 and the relative viability ([11]; first compound 4 µM) was 0.677. The relative viability ([12]; first compound 0.04 µM) was 0.761, the relative viability ([12]; first compound 0.1265 µM) was 0.735 and the relative viability ([12]; first compound 0.4 µM) was 0.593. The relative viability ([12]; first compound 1.265 µM) was 0.472, the relative viability ([12]; first compound 4 µM) was 0.0478 and the relative viability ([13]; first compound 0.04 µM) was 1.08. It also gave a relative viability ([13]; first compound 0.1265 µM) of 1.06, a relative viability ([13]; first compound 0.4 µM) of 0.972 and a relative viability ([13]; first compound 1.265 µM) of 0.729. For the same molecule, the relative viability ([13]; first compound 4 µM) was 0.515, the relative viability ([14]; first compound 0.04 µM) was 0.905 and the relative viability ([14]; first compound 0.1265 µM) was 0.902. It also gave a relative viability ([14]; first compound 0.4 µM) of 0.872, a relative viability ([14]; first compound 1.265 µM) of 0.455 and a relative viability ([14]; first compound 4 µM) of 0.672. It also gave a relative viability ([15]; first compound 0.04 µM) of 1, a relative viability ([15]; first compound 0.1265 µM) of 1.01 and a relative viability ([15]; first compound 0.4 µM) of 0.963. For the same molecule, the relative viability ([15]; first compound 1.265 µM) was 0.866, the relative viability ([15]; first compound 4 µM) was 0.833 and the relative viability ([16]; first compound 0.04 µM) was 0.774. For the same molecule, the relative viability ([16]; first compound 0.1265 µM) was 0.751, the relative viability ([16]; first compound 0.4 µM) was 0.781 and the relative viability ([16]; first compound 1.265 µM) was 0.83. It also gave a relative viability ([16]; first compound 4 µM) of 0.801, a relative viability ([17]; first compound 0.04 µM) of 1.06 and a relative viability ([17]; first compound 0.1265 µM) of 1.09. For the same molecule, the relative viability ([17]; first compound 0.4 µM) was 0.973, the relative viability ([17]; first compound 1.265 µM) was 0.787 and the relative viability ([17]; first compound 4 µM) was 0.795. It also gave a relative viability ([18]; first compound 0.04 µM) of 0.767, a relative viability ([18]; first compound 0.1265 µM) of 0.745 and a relative viability ([18]; first compound 0.4 µM) of 0.745. It also gave a relative viability ([18]; first compound 1.265 µM) of 0.757, a relative viability ([18]; first compound 4 µM) of 0.75 and a relative viability ([19]; first compound 0.04 µM) of 1.06. For the same molecule, the relative viability ([19]; first compound 0.1265 µM) was 1.12, the relative viability ([19]; first compound 0.4 µM) was 1.05 and the relative viability ([19]; first compound 1.265 µM) was 0.965. The relative viability ([19]; first compound 4 µM) was 0.579, the relative viability ([20]; first compound 0.04 µM) was 0.955 and the relative viability ([20]; first compound 0.1265 µM) was 0.915. The relative viability ([20]; first compound 0.4 µM) was 0.909, the relative viability ([20]; first compound 1.265 µM) was 0.856 and the relative viability ([20]; first compound 4 µM) was 0.45. For the same molecule, the relative viability ([21]; first compound 0.04 µM) was 1.08, the relative viability ([21]; first compound 0.1265 µM) was 1.03 and the relative viability ([21]; first compound 0.4 µM) was 0.974. For the same molecule, the relative viability ([21]; first compound 1.265 µM) was 0.571, the relative viability ([21]; first compound 4 µM) was 0.895 and the relative viability ([22]; first compound 0.04 µM) was 1.04. It also gave a relative viability ([22]; first compound 0.1265 µM) of 0.937, a relative viability ([22]; first compound 0.4 µM) of 0.977 and a relative viability ([22]; first compound 1.265 µM) of 0.977. It also gave a relative viability ([22]; first compound 4 µM) of 1.05, a relative viability ([23]; first compound 0.04 µM) of 0.839 and a relative viability ([23]; first compound 0.1265 µM) of 0.834. The relative viability ([23]; first compound 0.4 µM) was 0.751, the relative viability ([23]; first compound 1.265 µM) was 0.738 and the relative viability ([23]; first compound 4 µM) was 0.618.
